Where a name gives a salt, the structure may show the parent alone.
Experiments:
[1] = target: T1, TBK1 (Homo sapiens, UniProt Q9UHD2); assay: TBK biochemical assay; conditions: 10 point 1:4 dose response, 30 uM top concentration, 90 min at 25° C., LabChip EZ Reader II; read-out: TBK1_IC50
T1 sequence (Q9UHD2 1-729): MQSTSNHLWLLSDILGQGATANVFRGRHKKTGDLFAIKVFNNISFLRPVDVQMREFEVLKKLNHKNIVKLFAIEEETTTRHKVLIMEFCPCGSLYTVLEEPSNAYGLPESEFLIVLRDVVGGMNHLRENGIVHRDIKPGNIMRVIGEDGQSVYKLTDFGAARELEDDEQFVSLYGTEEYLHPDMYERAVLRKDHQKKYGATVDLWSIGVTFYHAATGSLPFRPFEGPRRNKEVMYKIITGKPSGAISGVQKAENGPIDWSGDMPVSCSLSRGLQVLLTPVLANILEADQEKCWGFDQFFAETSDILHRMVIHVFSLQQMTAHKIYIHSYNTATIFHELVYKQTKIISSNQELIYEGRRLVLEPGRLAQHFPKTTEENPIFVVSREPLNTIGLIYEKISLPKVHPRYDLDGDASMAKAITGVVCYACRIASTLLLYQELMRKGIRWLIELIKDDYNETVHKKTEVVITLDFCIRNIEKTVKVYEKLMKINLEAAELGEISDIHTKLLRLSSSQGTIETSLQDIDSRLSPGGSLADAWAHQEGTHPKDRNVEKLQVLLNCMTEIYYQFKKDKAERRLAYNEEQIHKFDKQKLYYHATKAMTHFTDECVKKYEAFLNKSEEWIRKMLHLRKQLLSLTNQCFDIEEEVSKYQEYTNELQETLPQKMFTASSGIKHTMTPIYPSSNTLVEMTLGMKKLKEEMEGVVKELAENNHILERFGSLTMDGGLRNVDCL
Summary of the method: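 Substrate and product were separated and quantified by microfluidic mobility-shift read (LabChip). 10 uM staurosporine served as the full-inhibition control, and the reference compound was tested from 1 uM final.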

[2] = target: T2, IKKε (Homo sapiens, UniProt Q14164); assay: IKKε biochemical assay; conditions: 10 point 1:4 dose response, 30 uM top concentration, 90 min at 25° C., LabChip EZ Reader II; read-out: IKKε_IC50
T2 sequence (Q14164 1-716): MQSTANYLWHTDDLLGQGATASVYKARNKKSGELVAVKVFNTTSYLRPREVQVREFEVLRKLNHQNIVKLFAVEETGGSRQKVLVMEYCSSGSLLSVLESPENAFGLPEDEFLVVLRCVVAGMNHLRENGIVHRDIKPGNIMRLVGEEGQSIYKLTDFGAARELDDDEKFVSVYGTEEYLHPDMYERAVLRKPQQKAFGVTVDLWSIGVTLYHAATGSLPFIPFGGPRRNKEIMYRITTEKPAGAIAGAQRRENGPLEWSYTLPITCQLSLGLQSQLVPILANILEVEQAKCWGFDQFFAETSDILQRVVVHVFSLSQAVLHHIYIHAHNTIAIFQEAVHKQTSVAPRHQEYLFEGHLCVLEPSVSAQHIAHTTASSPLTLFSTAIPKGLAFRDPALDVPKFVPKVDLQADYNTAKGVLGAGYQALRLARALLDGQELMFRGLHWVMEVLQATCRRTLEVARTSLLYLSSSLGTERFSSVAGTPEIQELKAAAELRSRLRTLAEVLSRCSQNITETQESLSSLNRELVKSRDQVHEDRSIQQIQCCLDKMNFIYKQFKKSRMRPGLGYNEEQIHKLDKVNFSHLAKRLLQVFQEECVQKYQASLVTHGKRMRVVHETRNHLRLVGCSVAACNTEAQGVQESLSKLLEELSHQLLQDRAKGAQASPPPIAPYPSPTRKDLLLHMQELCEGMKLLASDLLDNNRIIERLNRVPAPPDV
Summary of the method: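 Compounds in 1% DMSO final were incubated with IKKε enzyme and substrate at 25° C. for 90 min, then stopped. Substrate and product peaks were resolved by LabChip EZ Reader II mobility-shift read-out. Staurosporine at 10 uM final served as the full-inhibition control.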

CN(C)C(=O)c1ccc(Nc2nccc(-c3ccc(OC4CCOCC4)c(C#N)n3)n2)cn1 [Example 28, 5-([4-[6-cyano-5-(oxan-4-yloxy)pyridin-2-yl]pyrimidin-2-yl]amino)-N,N-dimethylpyridine-2-carboxamide]
IC50 [1]: < 100 nM | IC50 [2]: < 100 nM

COc1nc(Nc2nccc(-c3ccc(OC4CCOCC4)c(C#N)n3)n2)ccc1C(=O)N(C)C [Example 26, 6-([4-[6-cyano-5-(oxan-4-yloxy)pyridin-2-yl]pyrimidin-2-yl]amino)-2-methoxy-N,N-dimethylpyridine-3-carboxamide]
IC50 [1]: < 100 nM | IC50 [2]: < 100 nM

COc1nc(Nc2nccc(-c3ccc(O[C@H]4CCN(C(=O)[C@H](C)O)C[C@H]4F)c(C#N)c3)n2)ccc1C1CCN(C2COC2)CC1 [Example 191, 2-[(3R,4S)-3-Fluoro-1-((S)-2-hydroxy-propionyl)-piperidin-4-yloxy]-5-[2-(2-methoxy-1′-oxetan-3-yl-1′,2′,3′4′,5′,6′-hexahydro-[3,4′]bipyridinyl-6-ylamino)-pyrimidin-4-yl]-benzonitrile]
IC50 [1]: < 100 nM | IC50 [2]: < 100 nM

COc1nc(Nc2nccc(-c3ccc(OC4CCN(C(=O)[C@@H](C)O)CC4(F)F)c(C#N)c3)n2)ccc1N1CCN(C)CC1C (stereo in doubt) [Example 110, 2-[3,3-Difluoro-1-((R)-2-hydroxy-propionyl)-piperidin-4-yloxy]-5-{2-[5-((S)-2,4-dimethyl-piperazin-1-yl)-6-methoxy-pyridin-2-ylamino]-pyrimidin-4-yl}-benzonitrile]
IC50 [1]: < 100 nM | IC50 [2]: < 100 nM

COc1nc(Nc2nccc(-c3ccc(OC4CCN(C)C4)c(C#N)c3)n2)ccc1C(=O)N(C)C (stereo not drawn) [Example 70, 6-[(4-[3-cyano-4-[(1-methylpyrrolidin-3-yl)oxy]phenyl]pyrimidin-2-yl)amino]-2-methoxy-N,N-dimethylpyridine-3-carboxamide hydrochloride]
IC50 [1]: 100 to 1000 nM | IC50 [2]: 100 to 1000 nM

COc1nc(Nc2ncc(F)c(-c3ccc(OC4CCN(C(=O)CO)CC4(F)F)c(C#N)c3)n2)ccc1N1CCN(C2COC2)CC1 (stereo not drawn) [Example 290, 2-{[3,3-difluoro-1-(2-hydroxyacetyl)piperidin-4-yl]oxy}-5-[5-fluoro-2-({6-methoxy-5-[4-(oxetan-3-yl)piperazin-1-yl]pyridin-2-yl}amino)pyrimidin-4-yl]benzonitrile]
IC50 [1]: < 100 nM | IC50 [2]: < 100 nM

COc1nc(Nc2nccc(-c3ccc(OC4CCN(C(=O)C(O)C5CC5)CC4(F)F)c(C#N)c3)n2)ccc1C1CCN(C2COC2)CC1 (stereo not drawn) [Example 239, 2-[1-(2-Cyclopropyl-2-hydroxy-acetyl)-3,3-difluoro-piperidin-4-yloxy]-5-[2-(2-methoxy-1′-oxetan-3-yl-1′,2′,3′,4′,5′,6′-hexahydro-[3,4′]bipyridinyl-6-ylamino)-pyrimidin-4-yl]-benzonitrile]
IC50 [1]: < 100 nM | IC50 [2]: < 100 nM

COc1nc(Nc2nccc(-c3ccc(OC4CCN(C(=O)CO)CC4)c(C#N)c3)n2)ccc1N1CCN(C)CC1 [Example 90, 2-[[1-(2-hydroxyacetyl)piperidin-4-yl]oxy]-5-(2-[[6-methoxy-5-(4-methylpiperazin-1-yl)pyridin-2-yl]amino]pyrimidin-4-yl)benzonitrile]
IC50 [1]: < 100 nM | IC50 [2]: < 100 nM

COc1nc(Nc2nccc(-c3ccc(OC4CCOCC4)c(C#N)n3)n2)ccc1C(=O)N1CCN(C)CC1 [Example 31, 6-[2-([6-methoxy-5-[(4-methylpiperazin-1-yl)carbonyl]pyridin-2-yl]amino)pyrimidin-4-yl]-3-(oxan-4-yloxy)pyridine-2-carbonitrile]
IC50 [1]: < 100 nM | IC50 [2]: < 100 nM

COc1nc(Nc2nccc(-c3ccc(OC4CCN(C(=O)[C@@H](O)CO)CC4(F)F)c(C#N)c3)n2)ccc1N1CCN(C2COC2)CC1 (stereo partly drawn) [Example 260, 2-[1-((S)-2,3-Dihydroxy-propionyl)-3,3-difluoro-piperidin-4-yloxy]-5-{2-[6-methoxy-5-(4-oxetan-3-yl-piperazin-1-yl)-pyridin-2-ylamino]-pyrimidin-4-yl}-benzonitrile]
IC50 [1]: < 100 nM | IC50 [2]: < 100 nM

COc1nc(Nc2nccc(-c3ccc(OC4CCN(C(=O)[C@H](C)O)C4)c(C#N)c3)n2)ccc1N1CCN(C2COC2)CC1 (stereo partly drawn) [Example 183, 2-([1-[(2S)-2-hydroxypropanoyl]pyrrolidin-3-yl]oxy)-5-[2-([6-methoxy-5-[4-(oxetan-3-yl)piperazin-1-yl]pyridin-2-yl]amino)pyrimidin-4-yl]benzonitrile]
IC50 [1]: < 100 nM | IC50 [2]: < 100 nM

CN1CCN(c2ccc(Nc3nccc(-c4ccc(OC5CCOCC5)c(C#N)c4)n3)cn2)CC1 [Example 66, 5-{2-[6-(4-Methyl-piperazin-1-yl)-pyridin-3-ylamino]-pyrimidin-4-yl}-2-(tetrahydro-pyran-4-yloxy)-benzonitrile]
IC50 [1]: < 100 nM | IC50 [2]: < 100 nM

COc1nc(Nc2nccc(-c3ccc(OC4CCN(C(=O)[C@H](C)O)CC4(F)F)c(C#N)c3)n2)ccc1N1CCN(C2COC2)[C@@H](C)C1 (stereo partly drawn) [Example 127, 2-[3,3-Difluoro-1-((S)-2-hydroxy-propionyl)-piperidin-4-yloxy]-5-{2-[6-methoxy-5-((S)-3-methyl-4-oxetan-3-yl-piperazin-1-yl)-pyridin-2-ylamino]-pyrimidin-4-yl}-benzonitrile]
IC50 [1]: < 100 nM | IC50 [2]: < 100 nM

COc1nc(Nc2nccc(-c3ccc(OC4CCN(C(=O)[C@H](C)O)CC4(F)F)c(C#N)c3)n2)ccc1N1CCN(C2COC2)C[C@@H]1C (stereo partly drawn) [Example 131, 2-[3,3-Difluoro-1-((S)-2-hydroxy-propionyl)-piperidin-4-yloxy]-5-{2-[6-methoxy-5-((S)-2-methyl-4-oxetan-3-yl-piperazin-1-yl)-pyridin-2-ylamino]-pyrimidin-4-yl}-benzonitrile]
IC50 [1]: < 100 nM | IC50 [2]: < 100 nM

COc1nc(Nc2nccc(-c3ccc(OC4CCOCC4)c(C#N)n3)n2)ccc1C(=O)N1CCCCC1 [Example 30, 6-[2-([6-methoxy-5-[(piperidin-1-yl)carbonyl]pyridin-2-yl]amino)pyrimidin-4-yl]-3-(oxan-4-yloxy)pyridine-2-carbonitrile]
IC50 [1]: < 100 nM | IC50 [2]: < 100 nM

COc1nc(Nc2ncc(F)c(-c3ccc(O[C@H]4CCN(C(=O)[C@H](C)O)CC4(F)F)c(C#N)c3)n2)ccc1N1CCN(C2COC2)CC1 [Example 288, 2-[[(4S)-33-difluoro-1-[(2S)-2-hydroxypropanoyl]piperidin-4-yl]oxy]-5-[5-fluoro-2-([6-methoxy-5-[4-(oxetan-3-yl)piperazin-1-yl]pyridin-2-yl]amino)pyrimidin-4-yl]benzonitrile]
IC50 [1]: < 100 nM | IC50 [2]: < 100 nM

C[C@H](O)C(=O)N1CCC(Oc2ccc(-c3ccnc(Nc4ccc(N5CCN(C6COC6)CC5)cc4)n3)cc2C#N)C(F)(F)C1 (stereo partly drawn) [Example 138, 2-([3,3-difluoro-1-[(2S)-2-hydroxypropanoyl]piperidin-4-yl]oxy)-5-[2-([4-[4-(oxetan-3-yl)piperazin-1-yl]phenyl]amino)pyrimidin-4-yl]benzonitrile]
IC50 [1]: < 100 nM | IC50 [2]: < 100 nM

N#Cc1cc(-c2ccnc(Nc3ccc(N4CCN(C5COC5)CC4)cc3)n2)ccc1OC1CCOC1 (stereo not drawn) [Example 161, 5-[2-([4-[4-(oxetan-3-yl)piperazin-1-yl]phenyl]amino)pyrimidin-4-yl]-2-(oxolan-3-yloxy)benzonitrile]
IC50 [1]: < 100 nM | IC50 [2]: < 100 nM

Reference: patent US20230019491A1, “PYRIMIDINE TBK/IKKe INHIBITOR COMPOUNDS AND USES THEREOF” (Merck Patent GmbH, priority 2017, published 2023)
